# Assays:
# Assay type in all cases: cell-based, human
# [1] = system: hESC-derived population (Pdx1+ cells); assay: ILV titration and test on other hESC lines, Pdx1+ cells
# Experimental: To generate a starting population, HUES cells were cultured on MEF feeder cells until 80-90% confluent, then treated with 25 ng/ml Wnt3a (R&D systems)+100 ng/ml Activin A (R&D systems) in advanced RPMI (A-RPMI, Invitrogen) supplemented with 1×L-Glu and 1×PS for 1 day, and then 100 ng/ml Activin A in A-RPMI supplemented with 1×L-Glu, 1×PS and 0.2% FBS (Invitrogen). Two days later, the media was changed to 50 ng/ml FGF10 (R&D systems)+0.25 μM KAAD-CYC (Calbiochem) in A-RPMI supplemented with 1×L-Glu, 1×PS and 2% FBS and maintained for additional 2 days. Cells were then transferred to 50 ng/ml FGF10+0.25 μM KAAD-CYC+2 μM RA (Sigma) in DMEM supplemented with 1×L-Glu, 1×PS, 1×B27 (Invitrogen) and cultured for an additional 4 days. ILV was obtained from Axxora, KAAD-CYC, TPB, PMA, BISI, Gö 6983, U0126 and PD98059 were obtained from Calbiochem and RA were obtained from Sigma.
# (§1) Cells were fixed with 10% formalin solution (Sigma) for 20 min at room temperature. Immunostaining was carried out with standard protocols. The following primary antibodies were used: goat anti-Pdx1 (1:500; R&D system); rabbit anti-FOXA2 (1:500; Upstate); rabbit anti-HNF6 (1:200; Santa Cruz Biotech); guinea pig anti-insulin (1:1000; Dako); rabbit anti-c-peptide (1:500; Linco); rabbit anti-amylase (1:200, Sigma); goat anti-HNF1β (1:100, Santa Cruz Biotech); and biotinylated DBA (1:400; Vector Lab). Alexa-488-, Alexa-555, and Alexa-647-conjugated donkey antibodies against mouse, rabbit, guinea pig and goat, and Pacific Blue conjugate-streptavidin (Invitrogen) were used at 1:300 dilution.
# Additional experiments were carried out to optimize treatment to obtain more Pdx1^+ cells. […] Secondly, since hESC lines vary in their differentiation potentials (Osafune et al., 2008), ILV was tested on other hESC lines and shown to be effective on HUES 2, 4 and 8. After 4 days treatment with ILV, 26.9±2.8% cells of HUES8-derived population are positively stained by Pdx1 antibody (FIG. 2b), making it the most responsive of the lines tested.
# [2] = system: HUES8-derived definitive endoderm population; assay: Pancreatic specification of the hESC-derived definitive endoderm population (Pdx1+ cells); details: definitive endoderm population with 70% Sox17+ cells, 4 days; 300 nM ILV, 50 ng/ml FGF10
# Experimental: FIG. 6c are results showing that ILV directs the specification of definitive endoderm population toward pancreatic lineage (definitive endoderm population was derived from HUES8 after 1 day treatment with 25 ng/ml Wnt3a and 100 ng/ml Activin A for 1 day and 100 ng/ml Activin A for additional 2 days; then, the definitive endoderm population was treated with 300 nM ILV or 300 nM ILV+50 ng/ml FGF10 for additional 4 days);
# Secondly, ILV was examined on the definitive endoderm population containing 70% Sox17^+ cells derived from HUES8 by Wnt3a/Activin treatment (D'Amour et al., 2006). […] Thus, ILV functions by inducing pancreatic specification of hESC-derived definitive endoderm population.
# [3] = system: HUES8-derived population; assay: In vitro differentiation into pancreatic lineages with bFGF and nicotinamide
# Experimental: For growth factor-induced differentiation, the ILV-treated populations were cultured in DMEM/F12 supplemented with 1×N2 (Invitrogen), 2 mg/ml albumin fraction V (Invitrogen), and 10 ng/ml bFGF (Invitrogen) for the first 4 days. 10 mM nicotinamide (Sigma) was then added and maintained for additional 8 days, changing the media every 3 days.
# as §1
# In mouse embryonic development, Pdx1^+ pancreatic progenitors contribute to exocrine, endocrine and duct cells (Gu et al., 2003). The developmental potential of Pdx1^+ cells produced by ILV treatment was tested in two assays. First, following published protocols for in vitro differentiation (Jiang et al., 2007), cells were cultured with bFGF and nicotinamide for an additional 12 days. Using this in vitro differentiation assay, four different induced cell types were tested, including HUES8-derived population before ILV treatment (no treatment), the HUES8-derived population after 4 day treatment with DMSO, 300 nM ILV or 300 nM ILV+50 ng/ml FGF10, respectively. After 12 days culture with bFGF and nicotinamide, these four populations of cells were stained with the antibodies against insulin, c-peptide, amylase or DBA (a duct marker).
# [4] = 4 day treatment (300 nM ILV, 50 ng/ml FGF10), then 12 days bFGF and nicotinamide
substance,measurement,setting,value
(−)-Indolactam V [ILV],effect on other hESC lines,"[1]; HUES 2, 4 and 8",effective
same,toxicity,[1]; at 300 nM,no detectable toxicity
same,concentration of highest efficiency,[1]; titration of ILV from 20 nM to 5 μM,300 nM
same,EC50,"[1]; titration of ILV from 20 nM to 5 μM, read-out: EC50 (dose-dependent increase of Pdx1+ cells)",142 nM
same,Pdx1+ cells,[2],21.5±2.4%
same,DBA+ duct cells,[3]; [4],3.6±1.3%
same,amylase+ exocrine cells,[3]; [4],22.7±5.3%
same,insulin+ cells,[3]; [4],0.5±0.2%
same,contribution to somatostatin+ cells,"[3]; compared to no treatment or DMSO, immunostaining and qRT-PCR",stronger ability to contribute
